Structures can show the parent of a compound that is named as a salt.
System: live vaccine strain (LVS) of Francisella tularensis
Test: microbe, parasite or virus in culture
Format: cell-based
Settings: introduction of the methyl-linked phenyl ring

CN[C@@H]1[C@H](O)[C@H](NC)[C@H]2O[C@]3(O)[C@H](O[C@@H]2[C@H]1O)O[C@H](C)C[C@@]3(O)CNCc1ccccc1 [compound 1, 3′-(R)-3′-(benzylaminomethyl)dihydrospectinomycin Trihydrochloride]
activity against Francisella tularensis LVS: well tolerated

Reference: patent US10266544B2, “Aryl substituted aminomethyl spectinomycin analogs as antibacterial agents” (ST. JUDE CHILDREN'S RESEARCH HOSPITAL, INC., priority 2013, dated 2019)
